In patent US20200261391A1, “METHODS OF REDUCING THE RISK OF A CARDIOVASCULAR EVENT IN A STATIN-TREATED SUBJECT BY INCREASING SERUM AND PLASMA EPA AND DPA LEVELS” (Amarin Pharmaceuticals Ireland Limited, priority 2019, published 2020):

Test system: TG, non-HDL-C, LDL-C, HDL-C, apo B, hsCRP
Assay: REDUCE-IT trial: fasting lipid, lipoprotein and inflammatory marker data over time
Format: in vivo, human
Method: Fasting Lipid Profile: The fasting lipid panel included: TG, TC, LDL-C, HDL-C, non-HDL-C, and VLDL-C. At all visits, LDL-C was calculated using the Friedewald equation. At Visit 1 and Visit 1.1 direct LDL-C were used if at the same visit TG>400 mg/dL (4.52 mmol/L). These LDL-C values were used for the evaluation of the LDL-C inclusion criterion (LDL-C qualifying measurements for randomization) and for the assessment of changes in the statin therapy when LDL-C was not at goal. […] In addition, irrespective of the TG levels, at Visit 2 (0 Months of Follow-up, baseline) and at Visit 4 (12 Months of Follow-up), LDL-C were measured by preparative ultracentrifugation. These preparative ultracentrifugation LDL-C measurements were used in the statistical analysis including the calculation of the percent change from baseline (1 year versus baseline). Hopkins LDL-C was calculated for each visit.
Biomarkers Assays: The biomarker assays included: hsCRP, Apo B and hsTnT.
The fasting lipid panel was tested at Screening (Visit 1 or Visit 1.1), Randomization visit (Visit 2; Day 0), Visit 3 (Day 120; ˜4 Months) and all other follow-up visits including the last visit. For change from baseline to 1 year preparative ultracentrifugation measurements for LDL-C were analyzed, unless this value was missing. If the LDL-C preparative ultracentrifugation values were missing, then another LDL-C value was used, with prioritization of values obtained from LDL-C Direct measurements, followed by LDL-C derived by the Friedewald calculation (only for subjects with TG<400 mg/dL), and finally LDL-C derived using the calculation published by Hopkins University investigators (Martin S S, Blaha M J, Elshazly M B, et al. Comparison of a novel method vs the Friedewald equation for estimating low-density lipoprotein cholesterol levels from the standard lipid profile. JAMA. 2013; 310:2061-8.). In addition, change from baseline to day 120 in LDL-C utilizing Friedewald's and Hopkins methods was analyzed, using the arithmetic mean of LDL-C obtained at Visit 2 (Day 0) and the preceding Visit 1 (or Visit 1.1). If one of these values was missing, the single available LDL-C value was used. LDL-C according to Hopkins was calculated at each visit.
The randomization visit was considered Baseline. If a baseline value was not available from the randomization visit, then the latest screening value was used. For measurements of lipids, lipoproteins and inflammatory markers, the change and the percent change were summarized at each visit. Since these biomarkers are typically not normally distributed, the Wilcoxon rank-sum test was used for treatment comparisons of the percent change from baseline, and medians and quartiles were provided for each treatment group. The medians of the differences between the treatment groups and 95% CIs were estimated with the Hodges-Lehmann method. In addition, shift-tables were generated as appropriate.

Q: What does the source list for `CC/C=C\C/C=C\C/C=C\C/C=C\C/C=C\CCCC(=O)OCC` [icosapent ethyl, eicosapentaenoic acid ethyl ester]?
A: Apo B Median Observed Value (Year 2): 80.0 mg/dL; HDL-C Median % Change from Baseline (Year 2): 0.0%; HDL-C Median Absolute Change from Baseline (Year 2): 0.0 mg/dL; HDL-C Median Observed Value (Year 2): 40.0 mg/dL; LDL-C Hopkins Median % Change from Baseline (Year 2): −0.2%; LDL-C Hopkins Median Absolute Change from Baseline (Year 2): -0.1 mg/dL; LDL-C Hopkins Median Observed Value (Year 2): 85.5 mg/dL; Log hsCRP Median % Change from Baseline (Year 2): −21.8%; Log hsCRP Median Absolute Change from Baseline (Year 2): −0.1 mg/L; Log hsCRP Median Observed Value (Year 2): 0.6 mg/L; Non-HDL-C Median % Change from Baseline (Year 2): −3.1%; Non-HDL-C Median Absolute Change from Baseline (Year 2): -3.5 mg/dL; Non-HDL-C Median Observed Value (Year 2): 113.0 mg/dL; Triglycerides Median % Change from Baseline (Year 2): −18.9%; Triglycerides Median Absolute Change from Baseline (Year 2): -38.5 mg/dL; Triglycerides Median Observed Value (Year 2): 173.0 mg/dL; hsCRP Median % Change from Baseline (Year 2): −13.9%; hsCRP Median Absolute Change from Baseline (Year 2): -0.2 mg/L; hsCRP Median Observed Value (Year 2): 1.8 mg/L; Apo B Between Group Difference Median % Change from Baseline (Year 2, vs placebo): −9.7%; Apo B Between Group Difference Median Absolute Change from Baseline (Year 2, vs placebo): -8.0 mg/dL; HDL-C Between Group Difference Median % Change from Baseline (Year 2, vs placebo): −4.6%; HDL-C Between Group Difference Median Absolute Change from Baseline (Year 2, vs placebo): -2.0 mg/dL; LDL-C Hopkins Between Group Difference Median % Change from Baseline (Year 2, vs placebo): −11.1%; LDL-C Hopkins Between Group Difference Median Absolute Change from Baseline (Year 2, vs placebo): -9.4 mg/dL; Log hsCRP Between Group Difference Median % Change from Baseline (Year 2, vs placebo): −22.5%; Log hsCRP Between Group Difference Median Absolute Change from Baseline (Year 2, vs placebo): −0.4 mg/L; Non-HDL-C Between Group Difference Median % Change from Baseline (Year 2, vs placebo): −12.5%; Non-HDL-C Between Group Difference Median Absolute Change from Baseline (Year 2, vs placebo): -14.5 mg/dL; Triglycerides Between Group Difference Median % Change from Baseline (Year 2, vs placebo): −19.7%; Triglycerides Between Group Difference Median Absolute Change from Baseline (Year 2, vs placebo): -43.8 mg/dL; hsCRP Between Group Difference Median % Change from Baseline (Year 2, vs placebo): −39.9%; hsCRP Between Group Difference Median Absolute Change from Baseline (Year 2, vs placebo): -0.9 mg/L; HDL-C Median % Change from Baseline (Year 3): 0.0%; HDL-C Median Absolute Change from Baseline (Year 3): 0.0 mg/dL; HDL-C Median Observed Value (Year 3): 40.0 mg/dL; LDL-C Hopkins Median % Change from Baseline (Year 3): −1.2%; LDL-C Hopkins Median Absolute Change from Baseline (Year 3): -1.0 mg/dL; LDL-C Hopkins Median Observed Value (Year 3): 84.6 mg/dL; Non-HDL-C Median % Change from Baseline (Year 3): −4.2%; Non-HDL-C Median Absolute Change from Baseline (Year 3): -4.8 mg/dL; Non-HDL-C Median Observed Value (Year 3): 112.0 mg/dL; Triglycerides Median % Change from Baseline (Year 3): −21.7%; Triglycerides Median Absolute Change from Baseline (Year 3): -44.0 mg/dL; Triglycerides Median Observed Value (Year 3): 167.0 mg/dL; HDL-C Between Group Difference Median % Change from Baseline (Year 3, vs placebo): −3.8%; HDL-C Between Group Difference Median Absolute Change from Baseline (Year 3, vs placebo): -1.5 mg/dL; LDL-C Hopkins Between Group Difference Median % Change from Baseline (Year 3, vs placebo): −10.4%; LDL-C Hopkins Between Group Difference Median Absolute Change from Baseline (Year 3, vs placebo): -8.7 mg/dL; Non-HDL-C Between Group Difference Median % Change from Baseline (Year 3, vs placebo): −12.4%; Non-HDL-C Between Group Difference Median Absolute Change from Baseline (Year 3, vs placebo): -14.5 mg/dL; Triglycerides Between Group Difference Median % Change from Baseline (Year 3, vs placebo): −20.3%; Triglycerides Between Group Difference Median Absolute Change from Baseline (Year 3, vs placebo): -45.5 mg/dL; HDL-C Median % Change from Baseline (Year 4): 1.0%; HDL-C Median Absolute Change from Baseline (Year 4): 0.5 mg/dL; HDL-C Median Observed Value (Year 4): 40.5 mg/dL; LDL-C Hopkins Median % Change from Baseline (Year 4): −0.6%; LDL-C Hopkins Median Absolute Change from Baseline (Year 4): -0.5 mg/dL; LDL-C Hopkins Median Observed Value (Year 4): 83.6 mg/dL; Non-HDL-C Median % Change from Baseline (Year 4): −4.2%; Non-HDL-C Median Absolute Change from Baseline (Year 4): -5.0 mg/dL; Non-HDL-C Median Observed Value (Year 4): 110.5 mg/dL; Triglycerides Median % Change from Baseline (Year 4): −21.7%; Triglycerides Median Absolute Change from Baseline (Year 4): -42.5 mg/dL; Triglycerides Median Observed Value (Year 4): 163.0 mg/dL; HDL-C Between Group Difference Median % Change from Baseline (Year 4, vs placebo): −3.9%; HDL-C Between Group Difference Median Absolute Change from Baseline (Year 4, vs placebo): -1.5 mg/dL; LDL-C Hopkins Between Group Difference Median % Change from Baseline (Year 4, vs placebo): −10.6%; LDL-C Hopkins Between Group Difference Median Absolute Change from Baseline (Year 4, vs placebo): -8.9 mg/dL; Non-HDL-C Between Group Difference Median % Change from Baseline (Year 4, vs placebo): −12.0%; Non-HDL-C Between Group Difference Median Absolute Change from Baseline (Year 4, vs placebo): -14.0 mg/dL; Triglycerides Between Group Difference Median % Change from Baseline (Year 4, vs placebo): −17.4%; Triglycerides Between Group Difference Median Absolute Change from Baseline (Year 4, vs placebo): -38.0 mg/dL; HDL-C Median % Change from Baseline (Year 5): 0.0%; HDL-C Median Absolute Change from Baseline (Year 5): 0.0 mg/dL; HDL-C Median Observed Value (Year 5): 41.0 mg/dL; LDL-C Hopkins Median % Change from Baseline (Year 5): −0.7%; LDL-C Hopkins Median Absolute Change from Baseline (Year 5): -0.8 mg/dL; LDL-C Hopkins Median Observed Value (Year 5): 82.2 mg/dL; Non-HDL-C Median % Change from Baseline (Year 5): −4.4%; Non-HDL-C Median Absolute Change from Baseline (Year 5): -5.0 mg/dL; Non-HDL-C Median Observed Value (Year 5): 109.0 mg/dL; Triglycerides Median % Change from Baseline (Year 5): −20.0%; Triglycerides Median Absolute Change from Baseline (Year 5): -38.0 mg/dL; Triglycerides Median Observed Value (Year 5): 158.0 mg/dL; HDL-C Between Group Difference Median % Change from Baseline (Year 5, vs placebo): −3.0%; HDL-C Between Group Difference Median Absolute Change from Baseline (Year 5, vs placebo): -1.5 mg/dL; LDL-C Hopkins Between Group Difference Median % Change from Baseline (Year 5, vs placebo): −8.0%; LDL-C Hopkins Between Group Difference Median Absolute Change from Baseline (Year 5, vs placebo): -6.6 mg/dL; Non-HDL-C Between Group Difference Median % Change from Baseline (Year 5, vs placebo): −9.9%; Non-HDL-C Between Group Difference Median Absolute Change from Baseline (Year 5, vs placebo): -11.0 mg/dL; Triglycerides Between Group Difference Median % Change from Baseline (Year 5, vs placebo): −16.7%; Triglycerides Between Group Difference Median Absolute Change from Baseline (Year 5, vs placebo): -33.5 mg/dL; reduction in hsCRP (in vivo): 40%
